Experimental data reported in PMC9578396, “Intrinsic Antibacterial Activity of Xeruborbactam In Vitro: Assessing Spectrum and Mode of Action” (Antimicrobial Agents and Chemotherapy, 2022).
Several values for one entry are separate records, joined by “and”; a condition that tells them apart may be missing. Identical values can stand only once. Like-named read-outs stand apart in the source and are kept apart here.

Key:
[1] = biological target: PBP1b (Pseudomonas aeruginosa, UniProt G3XD31); assay: Gel-based Bocillin FL competition PBP binding assay
Sequence of PBP1b (G3XD31 entry or part of it): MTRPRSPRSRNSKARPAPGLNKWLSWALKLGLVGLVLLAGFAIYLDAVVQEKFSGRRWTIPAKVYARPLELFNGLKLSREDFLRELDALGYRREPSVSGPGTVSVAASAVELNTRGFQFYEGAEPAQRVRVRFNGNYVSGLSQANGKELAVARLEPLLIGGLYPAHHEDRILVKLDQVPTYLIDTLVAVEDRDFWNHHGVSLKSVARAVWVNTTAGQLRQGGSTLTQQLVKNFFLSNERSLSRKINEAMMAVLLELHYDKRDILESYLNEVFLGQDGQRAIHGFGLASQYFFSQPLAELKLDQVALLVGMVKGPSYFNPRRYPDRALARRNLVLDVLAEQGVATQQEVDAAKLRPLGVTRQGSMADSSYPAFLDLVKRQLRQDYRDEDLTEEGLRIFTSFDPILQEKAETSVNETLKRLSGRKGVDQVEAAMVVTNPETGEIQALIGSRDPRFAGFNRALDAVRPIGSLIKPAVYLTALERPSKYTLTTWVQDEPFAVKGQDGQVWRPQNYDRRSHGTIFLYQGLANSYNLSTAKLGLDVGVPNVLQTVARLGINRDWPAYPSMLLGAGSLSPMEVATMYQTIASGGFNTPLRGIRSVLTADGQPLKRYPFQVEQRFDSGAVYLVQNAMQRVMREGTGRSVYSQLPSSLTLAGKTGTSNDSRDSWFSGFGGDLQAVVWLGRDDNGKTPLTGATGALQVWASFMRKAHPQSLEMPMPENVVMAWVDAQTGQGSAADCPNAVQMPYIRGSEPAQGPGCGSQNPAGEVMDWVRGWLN
Experimental: (§1) Ten milliliters of overnight bacterial culture was inoculated in 1 L of LB medium and grown to an OD600 of 0.7 to 0.9. The cell pellet was washed once with 50 mL of solution containing 100 mM Na-phosphate at pH 7.0 and 100 mM NaCl and resuspended in 10 mL of the same buffer with one tablet of EDTA-free mini-protease inhibitor and 10 mg of lysozyme. Cell suspensions were incubated for 45 min at 37°C, and then 200 μL of DNase I was added along with MgSO4 (to a final concentration of 10 mM), followed by three cycles of freeze-thawing (10 min and 20 min, respectively). Four cycles of sonication at maximum power were performed next, each cycle lasting for 30 s with 1 min on ice between cycles. The cell suspension was centrifuged at 12,000 × g for 10 min at 4°C. The supernatant was collected and centrifuged at 100,000 × g for 45 min at 4°C. The pellet was washed three times with 10 mL of 100 mM Na-phosphate, pH 7.0, by resuspension and subsequent centrifugation at 100,000 × g for 10 min at 4°C. The pellet was finally resuspended in 1.5 mL of 100 mM Na-phosphate, pH 7.0, and passed several times through a Dounce homogenizer (tight pestle). Membrane preparations were aliquoted and kept at −80°C.
(§2) Five microliters of total bacterial membrane preparation was mixed with 5 μL of a test compound at a desired concentration in 100 mM Na-phosphate buffer, pH 7.0. Incubation of bacterial membrane preparations with control beta-lactams was performed for 10 min at 30°C; xeruborbactam was incubated with membrane preparations for 1 h at 30°C. Five microliters of 150 μM Bocillin FL fluorescent probe (Thermo Fisher Scientific) was added, and the reaction mixture was incubated for an additional 10 min at 30°C in the case of beta-lactams or for 20 min on ice (0°C) in the case of xeruborbactam. […] At the end of the incubation step, 15 μL of 2× SDS sample loading buffer was added, and the reaction mixture was incubated for 5 min at 95°C. Twenty-five microliters of the reaction mixture was then loaded on an 8% SDS Tris-glycine gel (Thermo Fisher Scientific). At the end of the run, the gel was briefly rinsed with water and fixed in 10% acetic acid, 40% methanol for 20 min. After an additional wash in water for 30 min, the gel was scanned on a Typhoon Trio+ Imager using a blue laser filter (excitation, 488 nm, and emission, 520 nm). Densitometry of the gel images was performed using ImageQuant software (Molecular Dynamics). IC50 values were calculated with Prism software (GraphPad).

[2] = biological target: T1, PBP2 (Acinetobacter baumannii, UniProt D0C8Z9); assay: as above; settings: A. baumannii ACM1320 membranes; Bocillin FL step 0°C for xeruborbactam, 30°C for beta-lactams; read-out: Relative binding IC50, PBP2
T1 construct: endogenous in cells
T1 sequence (D0C8Z9 1-672): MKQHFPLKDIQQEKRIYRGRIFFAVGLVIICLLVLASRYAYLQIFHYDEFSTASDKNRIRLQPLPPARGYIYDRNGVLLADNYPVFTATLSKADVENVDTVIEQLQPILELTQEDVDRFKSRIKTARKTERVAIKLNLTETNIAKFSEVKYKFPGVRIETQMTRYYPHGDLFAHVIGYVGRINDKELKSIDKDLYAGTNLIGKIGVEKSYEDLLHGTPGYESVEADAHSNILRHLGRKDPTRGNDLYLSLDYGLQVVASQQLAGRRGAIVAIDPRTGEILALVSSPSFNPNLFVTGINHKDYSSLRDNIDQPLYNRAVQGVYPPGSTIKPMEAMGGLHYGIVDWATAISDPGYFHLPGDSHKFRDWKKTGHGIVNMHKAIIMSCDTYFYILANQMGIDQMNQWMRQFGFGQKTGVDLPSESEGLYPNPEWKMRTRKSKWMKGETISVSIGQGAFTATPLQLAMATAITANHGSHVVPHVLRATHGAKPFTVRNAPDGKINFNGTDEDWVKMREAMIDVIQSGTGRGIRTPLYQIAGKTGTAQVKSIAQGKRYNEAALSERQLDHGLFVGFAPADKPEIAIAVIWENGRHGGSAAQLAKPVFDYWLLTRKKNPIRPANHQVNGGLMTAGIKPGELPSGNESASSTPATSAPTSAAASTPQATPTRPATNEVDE
Experimental: as §1, §2

[3] = system: Pseudomonas aeruginosa; assay: Broth microdilution MIC (CLSI), Pseudomonas aeruginosa; assay type: cell-based; settings: for MIC50 / MIC90: 506 isolates
Outline: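 MICs by CLSI broth microdilution in in-house panels. Strains tested were engineered strains carrying porin and efflux mutation combinations, KPC-producing clinical isolates and derivatives cured of KPC plasmids, and KPC-producing clinical isolates enriched for porin mutations.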

[4] = Pseudomonas aeruginosa, strain PAM1032, nalB (MexAB-OprM overexpression)
[5] = Pseudomonas aeruginosa, strain PAM1033, nfxB (MexCD-OprJ overexpression)
[6] = Pseudomonas aeruginosa, strain PAM1034, nfxC (MexEF-OprN overexpression)
[7] = Pseudomonas aeruginosa, strain PAM1106, mexA::Tet
[8] = Pseudomonas aeruginosa, strain PAM1154, oprM::Hg

C[C@@H](O)[C@H]1C(=O)N2C(C(=O)O)=C(S[C@@H]3CN[C@H](C(=O)N(C)C)C3)[C@H](C)[C@H]12 [Meropenem]
IC50 ([1]; read-out: Relative binding IC50, PBP1b; P. aeruginosa PAM3034 membranes; Bocillin FL step 0°C for xeruborbactam, 30°C for beta-lactams): 230 nM
IC50 [2]: 11 nM
MIC ([3]; PAM1154 (oprM::Hg), xeruborbactam 0 µg/ml): 0.5 µg/mL
MIC ([3]; Pseudomonas aeruginosa): 0.25 µg/mL
MIC ([3]; Pseudomonas aeruginosa, PAO1): 0.06 µg/mL and 0.16 µM
MIC [3, 4]: 1 µg/mL
MIC [3, 5]: 0.25 µg/mL
MIC [3, 6]: 0.5 µg/mL
MIC [3, 7]: 0.06 µg/mL
MIC [3, 8]: 0.06 µg/mL

O=C(O)c1c(F)ccc2c1OB(O)[C@@H]1C[C@H]21 [Xeruborbactam]
IC50 ([1]; P. aeruginosa PAM3034 membranes; Bocillin FL step 0°C for xeruborbactam, 30°C for beta-lactams; listed as xeruborbactam; read-out: Relative binding IC50, PBP1b): 7100 ± 800 nM
IC50 ([1]; P. aeruginosa PAM3034 membranes; Bocillin FL step 0°C for xeruborbactam, 30°C for beta-lactams; read-out: Relative binding IC50, PBP1b): 1900 ± 200 nM
IC50 [2]: 23000 ± 2000 nM
isolates with MICs of ≥64 μg/mL ([3]; 506 P. aeruginosa clinical isolates): 94%
MIC50 ([3]; Pseudomonas aeruginosa): >64 µg/mL
MIC90 ([3]; Pseudomonas aeruginosa): >64 µg/mL
MIC50 ([3]; Pseudomonas aeruginosa, read-out: MIC50): > 64 µg/mL
MIC90 ([3]; Pseudomonas aeruginosa, read-out: MIC90): > 64 µg/mL
MIC ([3]; Pseudomonas aeruginosa, PAM1154 (oprM::Hg), xeruborbactam 0 µg/ml): 16 µg/mL
MIC ([3]; Pseudomonas aeruginosa, PAO1, Pseudomonas aeruginosa PAM3034 (PAO1), read-out: MIC): 16 µg/mL and 72 µM
MIC ([3]; Pseudomonas aeruginosa, after inactivation of MexAB-OprM, read-out: MIC): 16 µg/mL
MIC ([3]; Pseudomonas aeruginosa, before inactivation of MexAB-OprM (wild type), read-out: MIC): 256 µg/mL
MIC ([3]; Pseudomonas aeruginosa, strain 1089003, alone, read-out: MIC): 16 µg/mL
MIC ([3]; Pseudomonas aeruginosa, strain 1097436, alone, read-out: MIC): 8 µg/mL
MIC ([3]; Pseudomonas aeruginosa, strain 1098084, alone, read-out: MIC): 16 µg/mL
MIC ([3]; Pseudomonas aeruginosa, strain 1098916, alone, read-out: MIC): 32 µg/mL
MIC ([3]; Pseudomonas aeruginosa, strain 1100407, alone, read-out: MIC): 32 µg/mL
MIC ([3]; Pseudomonas aeruginosa, strain 1104100, alone, read-out: MIC): 16 µg/mL
MIC ([3]; Pseudomonas aeruginosa, strain 1104168, alone, read-out: MIC): 32 µg/mL
MIC ([3]; Pseudomonas aeruginosa, strain 1104284, alone, read-out: MIC): 8 µg/mL
MIC ([3]; Pseudomonas aeruginosa, strain 1106973, alone, read-out: MIC): 16 µg/mL
MIC ([3]; Pseudomonas aeruginosa, strain 1108885, alone, read-out: MIC): 16 µg/mL
MIC ([3]; Pseudomonas aeruginosa, strain 1109744, alone, read-out: MIC): 16 µg/mL
MIC ([3]; Pseudomonas aeruginosa, strain 1113238, alone, read-out: MIC): 8 µg/mL
MIC ([3]; Pseudomonas aeruginosa, strain 1113634, alone, read-out: MIC): 8 µg/mL
MIC ([3]; Pseudomonas aeruginosa, strain 1114012, alone, read-out: MIC): 8 µg/mL
MIC ([3]; Pseudomonas aeruginosa, strain 1116835, alone, read-out: MIC): 8 µg/mL
MIC ([3]; Pseudomonas aeruginosa, strain 1116849, alone, read-out: MIC): 16 µg/mL
MIC ([3]; Pseudomonas aeruginosa, strain 1118234, alone, read-out: MIC): 16 µg/mL
MIC ([3]; Pseudomonas aeruginosa, strain 1119418, alone, read-out: MIC): 8 µg/mL
MIC ([3]; Pseudomonas aeruginosa, strain 1124145, alone, read-out: MIC): 16 µg/mL
MIC ([3]; Pseudomonas aeruginosa, strain 1125954, alone, read-out: MIC): 32 µg/mL
MIC ([3]; Pseudomonas aeruginosa, strain 1125996, alone, read-out: MIC): 32 µg/mL
MIC ([3]; Pseudomonas aeruginosa, strain 1126521, alone, read-out: MIC): 8 µg/mL
MIC ([3]; Pseudomonas aeruginosa, strain 1126957, alone, read-out: MIC): 8 µg/mL
MIC ([3]; Pseudomonas aeruginosa, strain 1126982, alone, read-out: MIC): 32 µg/mL
MIC ([3]; Pseudomonas aeruginosa, strain 1128636, alone, read-out: MIC): 32 µg/mL
MIC ([3]; Pseudomonas aeruginosa, strain 1128674, alone, read-out: MIC): 16 µg/mL
MIC ([3]; Pseudomonas aeruginosa, strain 1130387, alone, read-out: MIC): 16 µg/mL
MIC ([3]; Pseudomonas aeruginosa, strain 1130447, alone, read-out: MIC): 16 µg/mL
MIC ([3]; Pseudomonas aeruginosa, strain 1130475, alone, read-out: MIC): 16 µg/mL
MIC ([3]; Pseudomonas aeruginosa, strain 1131123, alone, read-out: MIC): 8 µg/mL
MIC ([3]; Pseudomonas aeruginosa, strain PAM1020, wild type, read-out: MIC): 256 µg/mL
MIC [3, 4]: > 256 µg/mL
MIC [3, 5]: 128 µg/mL
MIC [3, 6]: 256 µg/mL
MIC [3, 7]: 16 µg/mL
MIC ([3]; Pseudomonas aeruginosa, strain PAM1154 (Fig. 6), read-out: MIC): 32 µg/mL
MIC [3, 8]: 16 µg/mL
MIC ([3]; Pseudomonas aeruginosa, strain PAM1154, read-out: MIC): 16 µg/mL
fold reduction of MIC ([3]; inactivation of MexAB-OprM): 16 fold
fold MIC decrease ([3]; mexCD-oprJ-overexpressing strain PAM1033): 2 fold
